Nine compounds from US20190345150A1, “MICROBIOCIDAL OXADIAZOLE DERIVATIVES” (SYNGENTA PARTICIPATIONS AG, priority 2016, published 2019) can be followed below.

Data set [1] has as its system Puccinia recondita f. Sp. Tritici. The data set can be described thus: Puccinia recondita f. sp. tritici / wheat / leaf disc curative (brown rust). It counts as in vivo. As to conditions: foliar, 24 h, 200 ppm in the applied formulation, wheat leaf segments cv. Kanzler, curative (applied 1 day after inoculation), compared to untreated control, read-out: disease control. The method, then:
Leaf disks or leaf segments of various plant species are cut from plants grown in a greenhouse. The cut leaf disks or segments are placed in multiwell plates (24-well format) onto water agar. The leaf disks are sprayed with a test solution before (preventative) or after (curative) inoculation. Compounds to be tested are prepared as DMSO solutions (max. 10 mg/ml) which are diluted to the appropriate concentration with 0.025% Tween20 just before spraying. The inoculated leaf disks or segments are incubated under defined conditions (temperature, relative humidity, light, etc.) according to the respective test system. A single evaluation of disease level is carried out 3 to 14 days after inoculation, depending on the pathosystem. Percent disease control relative to the untreated check leaf disks or segments is then calculated. Wheat leaf segments cv. Kanzler are placed on agar in multiwell plates (24-well format). The leaf segments are then inoculated with a spore suspension of the fungus. Plates were stored in darkness at 19° C. and 75% relative humidity. The formulated test compound diluted in water was applied 1 day after inoculation. The leaf segments were incubated at 19° C. and 75% relative humidity under a light regime of 12 hours light/12 hours darkness in a climate cabinet and the activity of a compound was assessed as percent disease control compared to untreated when an appropriate level of disease damage appears in untreated check leaf segments (6 to 8 days after application).

Data set [2] deals with Glomerella laqenarium (Colletotrichum laqenarium). The data set can be described thus: Glomerella lagenarium liquid culture / cucumber / preventative (anthracnose). It counts as cell-based. As to conditions: 20 ppm in the applied formulation, liquid culture in PDB, growth inhibition measured photometrically 3 to 4 days after application, compared to untreated control, read-out: disease control. The method, then: Mycelia fragments or conidia suspensions of a fungus prepared either freshly from liquid cultures of the fungus or from cryogenic storage, are directly mixed into nutrient broth. DMSO solutions of the test compound (max. 10 mg/ml) are diluted with 0.025% Tween20 by a factor of 50 and 10 μl of this solution is pipetted into a microtiter plate (96-well format). The nutrient broth containing the fungal spores/mycelia fragments is then added to give an end concentration of the tested compound. The test plates are incubated in the dark at 24° C. and 96% relative humidity. The inhibition of fungal growth is determined photometrically after 2 to 7 days, depending on the pathosystem, and percent antifungal activity relative to the untreated check is calculated. Conidia of the fungus from cryogenic storage are directly mixed into nutrient broth (PDB—potato dextrose broth). After placing a (DMSO) solution of test compound into a microtiter plate (96-well format), the nutrient broth containing the fungal spores is added. The test plates are incubated at 24° C. and the inhibition of growth is measured photometrically 3 to 4 days after application.

Another data set relates to Phakopsora pachyrhizi. The data set can be described thus: Phakopsora pachyrhizi / soybean / leaf disc preventative (Asian soybean rust). It counts as in vivo. As to conditions: foliar, 200 ppm in the applied formulation, soybean leaf disks, preventative (inoculated 1 day after application), compared to untreated control, read-out: disease control. As to the method: Leaf disks or leaf segments of various plant species are cut from plants grown in a greenhouse. The cut leaf disks or segments are placed in multiwell plates (24-well format) onto water agar. The leaf disks are sprayed with a test solution before (preventative) or after (curative) inoculation. Compounds to be tested are prepared as DMSO solutions (max. 10 mg/ml) which are diluted to the appropriate concentration with 0.025% Tween20 just before spraying. The inoculated leaf disks or segments are incubated under defined conditions (temperature, relative humidity, light, etc.) according to the respective test system. A single evaluation of disease level is carried out 3 to 14 days after inoculation, depending on the pathosystem. Percent disease control relative to the untreated check leaf disks or segments is then calculated. Soybean leaf disks are placed on water agar in multiwell plates (24-well format) and sprayed with the formulated test compound diluted in water. One day after application leaf discs are inoculated by spraying a spore suspension on the lower leaf surface. After an incubation period in a climate cabinet of 24-36 hours in darkness at 20° C. and 75% rh leaf disc are kept at 20° C. with 12 h light/day and 75% rh. The activity of a compound is assessed as percent disease control compared to untreated when an appropriate level of disease damage appears in untreated check leaf disks (12 to 14 days after application).

Data set [3] concerns Puccinia recondita f. Sp. Tritici. The data set can be described thus: Puccinia recondita f. sp. tritici / wheat / leaf disc preventative (brown rust). It counts as in vivo. As to conditions: foliar, 200 ppm in the applied formulation, wheat leaf segments cv. Kanzler, preventative (inoculated 1 day after application), compared to untreated control, read-out: disease control. As to the method:
Leaf disks or leaf segments of various plant species are cut from plants grown in a greenhouse. The cut leaf disks or segments are placed in multiwell plates (24-well format) onto water agar. The leaf disks are sprayed with a test solution before (preventative) or after (curative) inoculation. Compounds to be tested are prepared as DMSO solutions (max. 10 mg/ml) which are diluted to the appropriate concentration with 0.025% Tween20 just before spraying. The inoculated leaf disks or segments are incubated under defined conditions (temperature, relative humidity, light, etc.) according to the respective test system. A single evaluation of disease level is carried out 3 to 14 days after inoculation, depending on the pathosystem. Percent disease control relative to the untreated check leaf disks or segments is then calculated. Wheat leaf segments cv. Kanzler were placed on agar in multiwell plates (24-well format) and sprayed with the formulated test compound diluted in water. The leaf disks were inoculated with a spore suspension of the fungus 1 day after application. The inoculated leaf segments were incubated at 19° C. and 75% relative humidity (rh) under a light regime of 12 hours light/12 hours darkness in a climate cabinet and the activity of a compound was assessed as percent disease control compared to untreated when an appropriate level of disease damage appears in untreated check leaf segments (7 to 9 days after application).

Values joined by “and” are separate entries in the source; they are usually repeats but may differ in a detail not shown here. Identical values can stand only once.

As usually defined, the melting point is the temperature of the solid-liquid transition. As to `CC1(C)CON=C1OCc1ccc(-c2noc(C(F)(F)F)n2)cc1` [Compound 1.1, 3-[4-[(4,4-dimethyl-5H-isoxazol-3-yl)oxymethyl]phenyl]-5-(trifluoromethyl)-1,2,4-oxadiazole], the melting point fell in the range of 50.2 to 51.8 °C. Moreover, in data set [1], the pest or weed control at 200 ppm is no less than 80%. For the same compound, the inhibition of growth at 20 ppm in data set [2] is no less than 80%. Further, the pest or weed control at 200 ppm in the data set with Phakopsora pachyrhizi was no less than 80%. Besides, the pest or weed control at 200 ppm in data set [3] was no less than 80%.

For `FC(F)(F)c1nc(-c2ccc(COC3=NOCC3)cc2)no1` [Compound 1.2, 3-[4-(4,5-dihydroisoxazol-3-yloxymethyl)phenyl]-5-(trifluoromethyl)-1,2,4-oxadiazole], the melting point is 97 to 101 °C and 97 to 100.9 °C. Further, in data set [1], the pest or weed control at 200 ppm was no less than 80%. For the same compound, the inhibition of growth at 20 ppm in data set [2] was no less than 80%. Moreover, the pest or weed control at 200 ppm in the data set with Phakopsora pachyrhizi is no less than 80%. In addition, in data set [3], the pest or weed control at 200 ppm is no less than 80%.

In turn, `CC1(C)CC(OCc2ccc(-c3noc(C(F)(F)F)n3)cc2)=NO1` [Compound 1.3, 3-[4-[(5,5-dimethyl-4H-isoxazol-3-yl)oxymethyl]phenyl]-5-(trifluoromethyl)-1,2,4-oxadiazole] returned a melting point of 107.9 to 108.6 °C. For the same compound, the inhibition of growth at 20 ppm in data set [2] was no less than 80%. The pest or weed control at 200 ppm with Phakopsora pachyrhizi is no less than 80%.

Regarding `FC(F)(F)c1nc(-c2ccc(COc3ccon3)cc2)no1` [Compound 1.4, 3-[4-(isoxazol-3-yloxymethyl)phenyl]-5-(trifluoromethyl)-1,2,4-oxadiazole], the melting point was in the range of 61.8 to 64.4 °C. For the same compound, the pest or weed control at 200 ppm in data set [1] was no less than 80%. Also, the inhibition of growth at 20 ppm in data set [2] is no less than 80%. Further, the pest or weed control at 200 ppm with Phakopsora pachyrhizi is no less than 80%. Moreover, the pest or weed control at 200 ppm in data set [3] is no less than 80%.

With `Fc1cc(COC2=NOCC2)ccc1-c1noc(C(F)(F)F)n1` [Compound 1.13, 3-[4-(4,5-dihydroisoxazol-3-yloxymethyl)-2-fluoro-phenyl]-5-(trifluoromethyl)-1,2,4-oxadiazole], the pest or weed control at 200 ppm (in data set [1]; in the data set on Phakopsora pachyrhizi; in data set [3]) was no less than 80% each time. Also, the inhibition of growth at 20 ppm in data set [2] is no less than 80%.

Take `Fc1ccc(OCc2ccc(-c3noc(C(F)(F)F)n3)cc2)nc1` [Compound 1.16, 3-[4-[(5-fluoro-2-pyridyl)oxymethyl]phenyl]-5-(trifluoromethyl)-1,2,4-oxadiazole]: the melting point lay in the range of 84 to 86 °C. The pest or weed control at 200 ppm with Phakopsora pachyrhizi was no less than 80%.

For `CON=COCc1ccc(-c2noc(C(F)(F)F)n2)cc1` [Compound 1.23, [4-[5-(trifluoromethyl)-1,2,4-oxadiazol-3-yl]phenyl]methyl N-methoxymethanimidate], the pest or weed control at 200 ppm (in data set [1]; in the data set with Phakopsora pachyrhizi; in data set [3]) was no less than 80% each time. In data set [2], the inhibition of growth at 20 ppm was no less than 80%.

As for `O=C(NC1CC1)OCc1ccc(-c2noc(C(F)(F)F)n2)cc1` [Compound 3.2, [4-[5-(trifluoromethyl)-1,2,4-oxadiazol-3-yl]phenyl]methyl N-cyclopropylcarbamate], the pest or weed control at 200 ppm (in data set [1]; in the data set on Phakopsora pachyrhizi; in data set [3]) was no less than 80% throughout. Also, the inhibition of growth at 20 ppm in data set [2] is no less than 80%.

As for `C/C(=N/OCc1ccc(-c2noc(C(F)(F)F)n2)cc1)N1CCOCC1` [Compound 4.3, (Z)-1-morpholino-N-[[4-[5-(trifluoromethyl)-1,2,4-oxadiazol-3-yl]phenyl]methoxy]ethanimine], the inhibition of growth at 20 ppm in data set [2] is no less than 80%. For the same compound, the pest or weed control at 200 ppm (in the data set with Phakopsora pachyrhizi; in data set [3]) was no less than 80% throughout.
